Where two headings read alike, the source gives them in different places.
Legend:
[1] = target: recombinant RORγ Ligand Binding Domain (LBD) protein (Homo sapiens (Human), UniProt P51449); assay: Radio-Ligand RORγ Binding Assay (Assay 1); conditions: competition with 25-hydroxy [26,27-3H]-cholesterol, SPA, read-out: RORγ Binding Ki Range*
How it was run: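 Scintillation proximity competition binding of 8.6 nM stock 25-hydroxy[26,27-3H]cholesterol to 24 nM stock 6×His-GST-tagged human RORγ LBD, in 50 mM HEPES pH 7.4 with NaCl, MgCl2, glycerol, CHAPS, β-octylglucopyranoside and DTT, room temperature. Inhibition referenced to DMSO and 10 μM T0901317; IC50 by four-parameter fit, converted to Ki using radioligand concentration and KD.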

[2] = target: full-length RORγt in Jurkat cells (Homo sapiens (Human), UniProt P51449); assay: RORγt 5xRORE Assay in Jurkat Cells (Assay 2); type: cell-based; conditions: Nanoluc luciferase reporter, 16-18 hrs
How it was run: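 Jurkat cells co-transfected with full-length RORγt expression plasmid and a 5×RORE-driven secreted Nanoluc reporter, then plated at 80,000 cells/well in phenol-red-free RPMI with 10% delipidated FBS. Compounds added at 0.1% DMSO for 16–18 h at 37 °C; supernatant luciferase read for inverse agonism.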

[3] = Table 9, read-out: RORγt5X IC50 Range*
[4] = Table 8, read-out: RORγt5X IC50 Range*

full-length RORγt in Jurkat cells, sequence (P51449 other isoform, or with tags, fused parts or gaps): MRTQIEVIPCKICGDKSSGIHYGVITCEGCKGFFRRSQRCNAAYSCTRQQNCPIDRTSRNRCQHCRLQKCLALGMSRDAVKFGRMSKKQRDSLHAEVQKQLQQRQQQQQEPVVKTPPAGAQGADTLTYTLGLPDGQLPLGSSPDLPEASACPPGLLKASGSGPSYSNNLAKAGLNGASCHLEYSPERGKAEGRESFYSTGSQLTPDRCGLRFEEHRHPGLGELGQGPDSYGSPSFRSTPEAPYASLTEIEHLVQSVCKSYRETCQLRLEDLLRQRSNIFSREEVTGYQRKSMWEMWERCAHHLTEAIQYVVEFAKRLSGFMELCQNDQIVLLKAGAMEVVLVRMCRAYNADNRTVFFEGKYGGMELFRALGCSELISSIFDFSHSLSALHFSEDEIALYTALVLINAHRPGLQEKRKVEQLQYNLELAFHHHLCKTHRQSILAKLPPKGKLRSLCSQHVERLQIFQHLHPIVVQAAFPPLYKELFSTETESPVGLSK
recombinant RORγ Ligand Binding Domain (LBD) protein, sequence (P51449 269-508): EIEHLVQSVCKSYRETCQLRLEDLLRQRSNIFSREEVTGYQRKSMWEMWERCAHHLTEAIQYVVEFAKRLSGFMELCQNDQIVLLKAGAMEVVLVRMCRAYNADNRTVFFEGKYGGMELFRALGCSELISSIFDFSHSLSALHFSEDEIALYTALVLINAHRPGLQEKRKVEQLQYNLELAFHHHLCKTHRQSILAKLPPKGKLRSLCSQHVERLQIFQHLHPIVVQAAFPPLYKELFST

| Ki ([1]; Table 9) [nM] | IC50 [2, 3] [nM] | Ki ([1]; Table 8) [nM] | IC50 [2, 4] [nM] | Compound |
| --- | --- | --- | --- | --- |
|  |  | < 100 | < 100 | CCS(=O)(=O)c1ccc(CC(=O)Nc2nc3c(s2)CN(Cc2ccc(Cl)cn2)[C@H]3C(C)C)cc1 [I-A11] |
| < 100 | > 1000 |  |  | CC(C)[C@@H]1c2nc(NC(=O)Cc3ccc(S(C)(=O)=O)cc3)sc2CN1Cc1cccc(Cl)c1 |
| < 100 | > 1000 |  |  | CCS(=O)(=O)c1ccc(CC(=O)Nc2nc3c(s2)CN(Cc2ccc(=O)n(C(F)F)c2)[C@H]3C(C)C)cc1 |
| < 100 | 100 to 1000 |  |  | CCS(=O)(=O)c1ccc(CC(=O)Nc2nc3c(s2)CN(Cc2cnc(C)nc2)[C@H]3C(C)C)cc1 |
| < 100 | > 1000 |  |  | CC(C)c1ccc(CN2Cc3sc(NC(=O)Cc4ccc(S(C)(=O)=O)cc4)nc3[C@H]2C(C)C)cc1 |
|  |  | < 100 | < 100 | CCS(=O)(=O)c1ccc(CC(=O)Nc2nc3c(s2)CN(Cc2ccc(OC(F)F)cc2)[C@H]3C(C)C)nc1 [I-C2] |
|  |  | < 100 | < 100 | CC(C)[C@H]1c2nc(NC(=O)Cc3ccc(S(C)(=O)=O)cc3)sc2CN1Cc1ccc(C(F)(F)F)cc1 [I-B19] |
| 100 to 1000 | 100 to 1000 |  |  | CCS(=O)(=O)c1ccc(CC(=O)Nc2nc3c(s2)CN(Cc2ccc(C#N)c(F)c2)[C@@H]3C(C)C)cc1 |
| < 100 | > 1000 |  |  | CCS(=O)(=O)c1ccc(CC(=O)Nc2nc3c(s2)CN([C@H](C)Cc2ccc(F)cc2)[C@@H]3C(C)C)cc1 |
| < 100 | > 1000 |  |  | CCS(=O)(=O)c1ccc(CC(=O)Nc2nc3c(s2)CN(Cc2ccc(C#N)cc2C(F)(F)F)[C@H]3C(C)C)cc1 |
| < 100 | < 100 |  |  | CC(C)[C@H]1c2nc(NC(=O)Cc3ccc(S(C)(=O)=O)cc3)sc2CN1Cc1ccc(-c2nnnn2C)cc1 |
|  |  | < 100 | < 100 | CCS(=O)(=O)c1ccc(CC(=O)Nc2nc3c(s2)CN(C[C@H]2CC[C@H](OC(F)F)CC2)[C@H]3C(C)C)cc1 [I-A28] |
| < 100 | > 1000 |  |  | CCS(=O)(=O)c1ccc(CC(=O)Nc2nc3c(s2)CN(Cc2ccc(N)nc2)[C@H]3C(C)C)cc1 |
|  |  | < 100 | < 100 | CCS(=O)(=O)c1ccc(CC(=O)Nc2nc3c(s2)CN(Cc2ccc(Cl)cc2)[C@H]3C(C)C)nc1 [I-C1, (S)—N-(5-(4-chlorobenzyl)-4-isopropyl-5,6-dihydro-4H-pyrrolo[3,4-d]thiazol-2-yl)-2-(5-(ethylsulfonyl)pyridin-2-yl)acetamide] |
|  |  | < 100 | > 1000 | CCS(=O)(=O)c1ccc(CC(=O)Nc2nc3c(s2)CN(Cc2ccccc2)[C@H]3C(C)C)cc1 [I-A7] |
|  |  | < 100 | < 100 | CCS(=O)(=O)c1ccc(CC(=O)Nc2nc3c(s2)CN(Cc2ccc(-c4nnn(C)n4)cc2)[C@H]3C(C)C)nc1 [I-C9] |
| 100 to 1000 | 100 to 1000 |  |  | CC[C@@H](C)[C@@H]1c2nc(NC(=O)Cc3ccc(S(C)(=O)=O)cc3)sc2CN1Cc1ccc(OC(F)(F)F)cc1 |
| < 100 | > 1000 |  |  | CCS(=O)(=O)c1ccc(CC(=O)Nc2nc3c(s2)CN([C@@H](C)Cc2ccccc2C(F)(F)F)[C@@H]3C(C)C)cc1 |
|  |  | < 100 | < 100 | CC(C)[C@H]1c2nc(NC(=O)Cc3ccc(S(C)(=O)=O)cc3)sc2CN1Cc1ccc(Cl)cc1 [I-B1, (S)—N-(5-(4-chlorobenzyl)-4-isopropyl-5,6-dihydro-4H-pyrrolo[3,4-d]thiazol-2-yl)-2-(4-(methylsulfonyl)phenyl)acetamide] |
|  |  | < 100 | < 100 | CCS(=O)(=O)c1ccc(CC(=O)Nc2nc3c(s2)CN([C@H](C)c2ccc(Br)cc2F)[C@H]3C(C)C)cc1 [I-A24] |
| < 100 | 100 to 1000 |  |  | CCS(=O)(=O)c1ccc(CC(=O)Nc2nc3c(s2)CN(Cc2ccc(C(F)(F)F)c(F)c2)[C@@H]3C(C)C)cc1 |
| < 100 | > 1000 |  |  | CCS(=O)(=O)c1ccc(CC(=O)Nc2nc3c(s2)CN(CCc2ccccc2)[C@@H]3C(C)C)cc1 |
|  |  | < 100 | < 100 | CCS(=O)(=O)c1ccc(CC(=O)Nc2nc3c(s2)CN(Cc2ccc(C(F)F)cc2)[C@H]3C(C)C)cc1 [I-A61] |
| 100 to 1000 | 100 to 1000 |  |  | CC(C)[C@@H]1c2nc(NC(=O)Cc3ccc(S(C)(=O)=O)cc3)sc2CN1Cc1ccc(OC(F)F)cc1F |

Continued, compound first:

| Compound | Ki ([1]; Table 9) [nM] | IC50 [2, 3] [nM] | Ki ([1]; Table 8) [nM] | IC50 [2, 4] [nM] |
| --- | --- | --- | --- | --- |
| CCS(=O)(=O)c1ccc(CNC(=O)c2nc3c(s2)CN(C[C@H]2CC[C@H](C(F)(F)F)CC2)[C@H]3C(C)C)cc1 (relative stereo) | < 100 | 100 to 1000 |  |  |
| CCS(=O)(=O)c1ccc(CNC(=O)c2nc3c(s2)CN(Cc2ccc(-c4nnn(C)n4)cc2)[C@H]3C(C)C)cc1 [I-J3] |  |  | < 100 | < 100 |
| CC(C)[C@H]1c2nc(C(=O)NCc3ccc(S(C)(=O)=O)cc3)sc2CN1Cc1ccc(F)cc1 | < 100 | > 1000 |  |  |
| CC(C)[C@H]1c2nc(NC(=O)Cc3ccc(S(C)(=O)=O)cc3)sc2CN1[C@@H](C)c1ccc(C(F)(F)F)nc1 (single isomer, unassigned) | < 100 | < 100 |  |  |
| CC[C@@H]1c2nc(NC(=O)Cc3ccc(S(C)(=O)=O)cc3)sc2CN1Cc1cccc(C(F)(F)F)c1 | < 100 | > 1000 |  |  |
| CCS(=O)(=O)c1ccc(CC(=O)Nc2nc3c(s2)CN(C[C@@H]2CC[C@H](C(F)(F)F)N(C)C2)[C@H]3C(C)C)cc1 (relative stereo) | < 100 | > 1000 |  |  |
| CCS(=O)(=O)c1ccc(CC(=O)Nc2nc3c(s2)CN(Cc2ccc(Cl)cc2)[C@@]3(C)C(C)C)cc1 | < 100 | < 100 |  |  |
| CCS(=O)(=O)c1ccc(CC(=O)Nc2nc3c(s2)CN(C[C@H]2CCCOC2)[C@H]3C(C)C)cc1 (single isomer, unassigned) | < 100 | > 1000 |  |  |
| CC(C)[C@H]1c2nc(NC(=O)Cc3ccc(S(C)(=O)=O)cc3)sc2CN1[C@H](C)c1ccc(C#N)cc1 [I-B14] |  |  | < 100 | < 100 |
| CCS(=O)(=O)c1ccc(CC(=O)Nc2nc3c(s2)CN(CC2CCN(CC(F)(F)F)CC2)[C@H]3C(C)C)cc1 [I-A20, (S)-2-(4-(ethylsulfonyl)phenyl)-N-(4-isopropyl-5-((1-(2,2,2-trifluoroethyl)piperidin-4-yl)methyl)-5,6-dihydro-4H-pyrrolo[3,4-d]thiazol-2-yl)acetamide] |  |  | < 100 | < 100 |
| CCS(=O)(=O)c1ccc(CC(=O)Nc2nc3c(s2)CN(Cc2ccc(C#N)cc2)[C@@H]3C(C)(C)C)cc1 | < 100 | 100 to 1000 |  |  |
| CCS(=O)(=O)c1ccc(CC(=O)Nc2nc3c(s2)CN(CC2CCS(=O)(=O)CC2)[C@H]3C(C)C)cc1 | < 100 | > 1000 |  |  |
| Cc1nc(C(F)(F)F)ccc1CN1Cc2sc(NC(=O)Cc3ccc(S(C)(=O)=O)cc3)nc2[C@@H]1C(C)C [I-B13] |  |  | < 100 | < 100 |
| CCS(=O)(=O)c1ccc(CC(=O)Nc2nc3c(s2)CN(C[C@H]2CC[C@@H](C(F)(F)F)N(C4CC4)C2)[C@H]3C(C)C)cc1 (single isomer, unassigned) | < 100 | > 1000 |  |  |
| CC(C)[C@H]1c2nc(NC(=O)Cc3ccc(S(C)(=O)=O)cc3)sc2CN1[C@H](C)c1ccc(C#N)c(F)c1 [I-B11] |  |  | < 100 | < 100 |
| CCS(=O)(=O)c1ccc(CNC(=O)c2nc3c(s2)CN(Cc2ccc(Cl)cc2)[C@H]3C(C)C)cc1 [I-J1, (S)-5-(4-chlorobenzyl)-N-(4-(ethylsulfonyl)benzyl)-4-isopropyl-5,6-dihydro-4H-pyrrolo[3,4-d]thiazole-2-carboxamide] |  |  | < 100 | < 100 |
| CC(C)[C@H]1c2nc(NC(=O)Cc3ccc(-c4nnnn4C)cc3)sc2CN1Cc1ccc(Cl)cc1 | 100 to 1000 | > 1000 |  |  |
| CCS(=O)(=O)c1ccc(CNC(=O)c2nc3c(s2)CN(C[C@H]2CC[C@@H](C(F)(F)F)CC2)[C@H]3C(C)C)cc1 (relative stereo) | < 100 | > 1000 |  |  |
| CCS(=O)(=O)c1ccc(CC(=O)Nc2nc3c(s2)CN(C(C)c2c(F)cc(Cl)cc2F)[C@H]3C(C)C)cc1 (some centres unmarked) [I-A32] |  |  | < 100 | < 100 |
| CCS(=O)(=O)c1ccc(CNC(=O)c2nc3c(s2)CN(Cc2ccc(Cl)cc2)[C@H]3C(C)C)nc1 [I-L1, (S)-5-(4-chlorobenzyl)-N-((5-(ethylsulfonyl)pyridin-2-yl)methyl)-4-isopropyl-5,6-dihydro-4H-pyrrolo[3,4-d]thiazole-2-carboxamide] |  |  | < 100 | < 100 |
| CCS(=O)(=O)c1ccc(CC(=O)Nc2nc3c(s2)CN(c2nccc(C(F)(F)F)n2)C3(C)C)cc1 | < 100 | > 1000 |  |  |
| CCS(=O)(=O)c1ccc(CC(=O)Nc2nc3c(s2)CN(C[C@@H]2CC[C@@H](C(F)(F)F)N(C)C2)[C@H]3C(C)C)cc1 [I-A29] |  |  | < 100 | < 100 |
| CCS(=O)(=O)c1ccc(CC(=O)Nc2nc3c(s2)CN(C[C@H]2CC[C@H](C(F)(F)F)N(C4CC4)C2)[C@H]3C(C)C)cc1 (single isomer, unassigned) | < 100 | > 1000 |  |  |
| CCS(=O)(=O)c1ccc(CC(=O)Nc2nc3c(s2)CN(Cc2ccc(C#N)cn2)[C@@]3(C)C(C)C)cc1 [drawing 270] | < 100 | < 100 |  |  |
| CC(C)[C@H]1c2nc(NC(=O)Cc3ccc(S(C)(=O)=O)cc3)sc2CN1[C@H](C)c1cnc(Cl)cc1F | < 100 | 100 to 1000 |  |  |

Reference: patent US9868748B2, “Thiazolopyrrolidine inhibitors of ROR- γ” (Vitae Pharmaceuticals, Inc., priority 2013, dated 2018)
